# Tested on: cells coated with sol-gel vapor
# Test: Proton efflux at the cellular surface, self referencing electrode
# Type: cell-based
# Details: 48 hours after coating cells with sol-gel vapor
# Description: Data relating to oxygen influx and proton efflux were collected using a self referencing electrode apparatus.
# Proton efflux is the result of a variety of cellular properties including metabolism.
row,Compound,proton efflux after addition of metabolic disrupter
1,CC[C@H]1/C=C/C=C/C[C@@H](C)[C@H](O)[C@@](C)(O)C(=O)[C@@H](C)[C@H](O)[C@@H](C)C(=O)[C@@H](C)[C@H](O)[C@@H](C)/C=C/C(=O)O[C@@H]2[C@H](C)[C@H](CC1)O[C@]1(CC[C@H](C)[C@H](C[C@@H](C)O)O1)[C@H]2C [oligomycin],decreasing efflux
2,antimycin A,increasing efflux
3,[N-]=[N+]=[N-].[Na+] [NaN3],decreasing efflux

# Source: US20110104780A1, “ENCAPSULATION OF LIVING CELLS WITHIN AN AEROSOLIZED SOL-GEL MATRIX” (PURDUE RESEARCH FOUNDATION, priority 2008, published 2011)
